In patent US20090029983A1, “NOVEL HETEROCYCLIC COMPOUNDS HAVING ANTI-HBV ACTIVITY” (priority 2005, published 2009) one finds EC50 data, which are given here for 29 molecules.

By EC50 is commonly meant the concentration needed to bring the measured effect to its halfway point.

The test deals with HBV. Put plainly: HBV screening assay (viral DNA in baculovirus-HBV transduced HepG2 cells). In kind it is cell-based. Particulars: Hepatitis B virus, HepG2, 72 h, read-out: EC50 (antiviral activity), HBV-transduced HepG2 cells, three days with compound, viral DNA by ELISA. The procedure: HepG2 cells were transduced using a baculovirus to deliver the HBV genome essentially as previously described (Delaney et al. in Hepatology 1998; 28: 1134-1146). Transduced cells were cultured in supplemented EMEM media with 10% fetal bovine serum in a 5% CO2 incubator at 37° C. for three days in the presence of test compounds. The cells were lysed in a buffer containing 0.5% NP-40 and […] proteinase K. A solid-phase hybridization was performed to capture the viral DNA and to label the target DNA with Digoxigenin-labeled DNA probes. The viral DNA was detected by ELISA, using horseradish peroxidase-conjugated anti-digoxigenin antibodies.
The EC50 values were determined using ExcelFit software from the inhibition values of a titration curve for each compound. For CC50 determinations, the same titration of compounds was co-cultured with non-transduced HepG2 for three days under the conditions described above. The Promega CellTiter 96 Aqueous One Solution Cell Proliferation Assay was used to measure cell proliferation/viability. The CC50 values were determined using ExcelFit software from the inhibition values of the titration curve for each compound.
Take `NC(=O)c1sc2nc3c(c(-c4cccs4)c2c1N)CCC3CC(=O)N1CCC(O)CC1` (centres unmarked) [Compound 52, 3-Amino-7-[2-(4-hydroxy-piperidin-1-yl)-2-oxo-ethyl]-4-thiophen-2-yl-6,7-dihydro-5H-cyclopenta[b]thieno[3,2-e]pyridine-2-carboxylic acid amide]: the EC50 is over 10 µM.
In the case of `Cc1ccsc1-c1c2c(nc3sc(C(N)=O)c(N)c13)CCCC2=O` [Compound 75, 3-Amino-4-(3-methyl-thiophen-2-yl)-5-oxo-5,6,7,8-tetrahydro-thieno[2,3-b]quinoline-2-carboxylic acid amide] it was under 1 µM; in that of `COc1cccc(NC(=S)N2Cc3nc4sc(C(N)=O)c(N)c4c(-c4cccs4)c3C2)c1` [Compound 85, 3-Amino-6-(3-methoxy-phenylthiocarbamoyl)-4-thiophen-2-yl-6,7-dihydro-5H-1-thia-6,8-diaza-s-indacene-2-carboxylic acid amide], over 10 µM; in that of `NC(=O)c1sc2nc3c(c(-c4cccs4)c2c1N)CCC3CC(=O)N1CCOCC1` (centres unmarked) [Compound 38, 3-Amino-7-(2-morpholin-4-yl-2-oxo-ethyl)-4-thiophen-2-yl-6,7-dihydro-5H-cyclopenta[b]thieno[3,2-e]pyridine-2-carboxylic acid amide], over 10 µM.
In the case of `NC(=O)c1sc2nc3c(c(-c4cccs4)c2c1N)CN(C(=S)NC1CC1)C3` [Compound 91, 3-Amino-6-cyclopropylthiocarbamoyl-4-thiophen-2-yl-6,7-dihydro-5H-1-thia-6,8-diaza-s-indacene-2-carboxylic acid amide] it was 1 to 10 µM.
For `CC(C)(C)OC(=O)N1Cc2nc3sc(C(N)=O)c(N)c3c(-c3cccs3)c2C1` [Compound 1, 3-Amino-6-tert-butyloxycarbonyl-4-thiophen-2-yl-6,7-dihydro-5H-1-thia-6,8-diaza-s-indacene-2-carboxylic acid amide], the half-maximal effective concentration (EC50) is over 10 µM.
With `NC(=O)c1sc2nc3c(c(-c4cccs4)c2c1N)CN(C1=NCCS1)C3` [Compound 95, 3-Amino-6-(4,5-dihydro-thiazol-2-yl)-4-thiophen-2-yl-6,7-dihydro-5H-1-thia-6,8-diaza-s-indacene-2-carboxylic acid amide], the EC50 is under 1 µM.
As to `NC(=O)c1sc2nc3c(c(-c4cccs4)c2c1N)CCC3CC(=O)NCC(O)c1ccccc1` (centres unmarked) [Compound 39, 3-Amino-7-[(2-hydroxy-2-phenyl-ethylcarbamoyl)-methyl]-4-thiophen-2-yl-6,7-dihydro-5H-cyclopenta[b]thieno[3,2-e]pyridine-2-carboxylic acid amide], the 50% effective concentration (EC50) is over 10 µM.
Take `COCCN1Cc2nc3sc(C(N)=O)c(N)c3c(-c3cccs3)c2C1` [Compound 17, 3-Amino-6-(2-methoxy-ethyl)-4-thiophen-2-yl-6,7-dihydro-5H-1-thia-6,8-diaza-s-indacene-2-carboxylic acid amide]: the EC50 was over 10 µM.
For `NC(=O)c1sc2nc3c(c(-c4cccs4)c2c1N)CN(C(=O)Nc1ccc(N2CCOCC2)nc1)C3` [Compound 102, 3-Amino-4-thiophen-2-yl-5,7-dihydro-1-thia-6,8-diaza-s-indacene-2,6-dicarboxylicacid 2-amide 6-[(6-morpholin-4-yl-pyridin-3-yl)-amide]], the EC50 is over 10 µM.
In the case of `NC(=O)c1sc2nc3c(c(-c4cccs4)c2c1N)CCC3CC(=O)NCc1ccc(C(F)(F)F)cc1` (centres unmarked) [Compound 47, 3-Amino-4-thiophen-2-yl-7-[(4-trifluoromethyl-benzylcarbamoyl)-methyl]-6,7-dihydro-5H-cyclopenta[b]thieno[3,2-e]pyridine-2-carboxylic acid amide] it was over 10 µM; in that of `NC(=O)c1sc2nc3c(c(-c4cccs4)c2c1N)CCC3C1CCCC1` (centres unmarked) [Compound 61, 3-Amino-7-cyclopentyl-4-thiophen-2-yl-6,7-dihydro-5H-cyclopenta[b]thieno[3,2-e]pyridine-2-carboxylic acid amide], 1 to 10 µM; in that of `NC(=O)c1sc2nc3c(c(-c4cccs4)c2c1N)CN(C(=S)Nc1cc(Cl)cc(Cl)c1)C3` [Compound 89, 3-Amino-6-(3,5-dichloro-phenylthiocarbamoyl)-4-thiophen-2-yl-6,7-dihydro-5H-1-thia-6,8-diaza-s-indacene-2-carboxylic acid amide], over 10 µM.
The figure for `COc1ccccc1CNC(=O)CC1CCc2c1nc1sc(C(N)=O)c(N)c1c2-c1cccs1` (centres unmarked) [Compound 44, 3-Amino-7-[(2-methoxy-benzylcarbamoyl)-methyl]-4-thiophen-2-yl-6,7-dihydro-5H-cyclopenta[b]thieno[3,2-e]pyridine-2-carboxylic acid amide] is over 10 µM.
Consider `CC(C)CCNC(=O)CC1CCc2c1nc1sc(C(N)=O)c(N)c1c2-c1cccs1` (centres unmarked) [Compound 48, 3-Amino-7-[(3-methyl-butylcarbamoyl)-methyl]-4-thiophen-2-yl-6,7-dihydro-5H-cyclopenta[b]thieno[3,2-e]pyridine-2-carboxylic acid amide], for which the EC50 was over 10 µM.
In the case of `NC(=O)c1sc2nc3c(c(-c4cccs4)c2c1N)CCC3CC(=O)NCCc1ccccn1` (centres unmarked) [Compound 46, 3-Amino-7-[(2-pyridin-2-yl-ethylcarbamoyl)-methyl]-4-thiophen-2-yl-6,7-dihydro-5H-cyclopenta[b]thieno[3,2-e]pyridine-2-carboxylic acid amide] it was over 10 µM; in that of `Cc1ccc(-c2c3c(nc4sc(C(N)=O)c(N)c24)CCN(Cc2ccccc2)C3)o1` [Compound 33, 3-Amino-6-benzyl-4-(5-methyl-furan-2-yl)-5,6,7,8-tetrahydro-thieno[2,3-b][1,6]naphthyridine-2-carboxylic acidamide], over 10 µM.
For the molecule `NC(=O)c1sc2nc3c(c(-c4ccc(Cl)cc4)c2c1N)C(=O)CCC3` [Compound 77, 3-Amino-4-(4-chloro-phenyl)-5-oxo-5,6,7,8-tetrahydro-thieno[2,3-b]quinoline-2-carboxylic acid amide], the concentration for a half-maximal effect (EC50) was over 10 µM.
As to `C=CCC1CCCc2c1nc1sc(C(N)=O)c(N)c1c2-c1cccs1` (centres unmarked) [Compound 70, 8-Allyl-3-amino-4-thiophen-2-yl-5,6,7,8-tetrahydro-thieno[2,3-b]quinoline-2-carboxylic acid amide], the EC50 lay within 1 to 10 µM.
The figure for `NC(=O)c1sc2nc3c(c(-c4cccs4)c2c1N)CN(CCc1ccccc1)C3` [Compound 10, 3-Amino-6-phenethyl-4-thiophen-2-yl-6,7-dihydro-5H-1-thia-6,8-diaza-s-indacene-2-carboxylic acid amide] is over 10 µM; for `NC(=O)c1sc2nc3c(c(-c4cccs4)c2c1N)CN(C(=O)Nc1ccccc1)C3` [Compound 96, 3-Amino-4-thiophen-2-yl-5,7-dihydro-1-thia-6,8-diaza-s-indacene-2,6-dicarboxylicacid 2-amide 6-phenylamide] it is over 10 µM; for `NC(=O)c1sc2nc3c(c(-c4cccs4)c2c1N)CCC3CC(=O)N1CCN(c2ccccn2)CC1` (centres unmarked) [Compound 53, 3-Amino-7-[2-oxo-2-(4-pyridin-2-yl-piperazin-1-yl)-ethyl]-4-thiophen-2-yl-6,7-dihydro-5H-cyclopenta[b]thieno[3,2-e]pyridine-2-carboxylic acid amide] it is over 10 µM.
In the case of `CCCCCCC1CCc2c1nc1sc(C(N)=O)c(N)c1c2-c1cccs1` (centres unmarked) [Compound 59, 3-Amino-7-hexyl-4-thiophen-2-6,7-dihydro-5H-cyclopenta[b]thieno[3,2-e]pyridine-2-carboxylic acid amide] it was over 10 µM; in that of `CCCC1CCCc2c1nc1sc(C(N)=O)c(N)c1c2-c1cccs1` (centres unmarked) [Compound 65, 3-Amino-8-propyl-4-thiophen-2-yl-5,6,7,8-tetrahydro-thieno[2,3-b]quinoline-2-carboxylic acid amide], 1 to 10 µM.
The figure for `CC1CCc2nc3sc(C(N)=O)c(N)c3c(-c3cccs3)c2C1` (centres unmarked) [Compound 72, 3-Amino-6-methyl-4-thiophen-2-yl-5,6,7,8-tetrahydro-thieno[2,3-b]quinoline-2-carboxylic acid amide] is over 10 µM; for `COc1cccc(C2CCCc3c2nc2sc(C(N)=O)c(N)c2c3-c2cccs2)c1` (centres unmarked) [Compound 67, 3-Amino-8-(3-methoxy-phenyl)-4-thiophen-2-yl-5,6,7,8-tetrahydro-thieno[2,3-b]quinoline-2-carboxylic acid amide] it is over 10 µM.
As for `NC(=O)c1sc2nc3c(c(-c4cccs4)c2c1N)CN(CC1CCCCC1)C3` [Compound 11, 3-Amino-6-cyclohexylmethyl-4-thiophen-2-yl-6,7-dihydro-5H-1-thia-6,8-diaza-s-indacene-2-carboxylic acid amide], the 50% effective concentration (EC50) lay within 1 to 10 µM.
In the case of `NC(=O)c1sc2nc3c(c(-c4cccs4)c2c1N)CN(CCOC(=O)c1ccccc1)C3` [Compound 9, 3-Amino-6-(2-benzoyloxy-ethyl)-4-thiophen-2-yl-6,7-dihydro-5H-1-thia-6,8-diaza-s-indacene-2-carboxylic acid amide] it was 1 to 10 µM; in that of `NC(=O)c1sc2nc3c(c(-c4cccs4)c2c1N)CN(C(=O)c1ccc(N2CCOCC2)nc1)C3` [Compound 105, 3-Amino-6-(6-morpholin-4-yl-pyridine-3-carbonyl)-4-thiophen-2-yl-6,7-dihydro-5H-1-thia-6,8-diaza-s-indacene-2-carboxylicacid amide], over 10 µM.
